Data taken from ChEMBL document CHEMBL5465560, “Selectivity Literature for EUbOPEN Chemogenomic Library” (2024).

How the values were obtained:
[1] = target: T1, Ephrin type-B receptor 2 (Homo sapiens) (UniProt P29323); assay: Selectivity interaction (Ambit KINOMEscan and KiNATiv profiling in Jurkat cells) EUB0000090b EPHB2; assay type: cell-based; settings: at 1 µM
T1 sequence (whole entry): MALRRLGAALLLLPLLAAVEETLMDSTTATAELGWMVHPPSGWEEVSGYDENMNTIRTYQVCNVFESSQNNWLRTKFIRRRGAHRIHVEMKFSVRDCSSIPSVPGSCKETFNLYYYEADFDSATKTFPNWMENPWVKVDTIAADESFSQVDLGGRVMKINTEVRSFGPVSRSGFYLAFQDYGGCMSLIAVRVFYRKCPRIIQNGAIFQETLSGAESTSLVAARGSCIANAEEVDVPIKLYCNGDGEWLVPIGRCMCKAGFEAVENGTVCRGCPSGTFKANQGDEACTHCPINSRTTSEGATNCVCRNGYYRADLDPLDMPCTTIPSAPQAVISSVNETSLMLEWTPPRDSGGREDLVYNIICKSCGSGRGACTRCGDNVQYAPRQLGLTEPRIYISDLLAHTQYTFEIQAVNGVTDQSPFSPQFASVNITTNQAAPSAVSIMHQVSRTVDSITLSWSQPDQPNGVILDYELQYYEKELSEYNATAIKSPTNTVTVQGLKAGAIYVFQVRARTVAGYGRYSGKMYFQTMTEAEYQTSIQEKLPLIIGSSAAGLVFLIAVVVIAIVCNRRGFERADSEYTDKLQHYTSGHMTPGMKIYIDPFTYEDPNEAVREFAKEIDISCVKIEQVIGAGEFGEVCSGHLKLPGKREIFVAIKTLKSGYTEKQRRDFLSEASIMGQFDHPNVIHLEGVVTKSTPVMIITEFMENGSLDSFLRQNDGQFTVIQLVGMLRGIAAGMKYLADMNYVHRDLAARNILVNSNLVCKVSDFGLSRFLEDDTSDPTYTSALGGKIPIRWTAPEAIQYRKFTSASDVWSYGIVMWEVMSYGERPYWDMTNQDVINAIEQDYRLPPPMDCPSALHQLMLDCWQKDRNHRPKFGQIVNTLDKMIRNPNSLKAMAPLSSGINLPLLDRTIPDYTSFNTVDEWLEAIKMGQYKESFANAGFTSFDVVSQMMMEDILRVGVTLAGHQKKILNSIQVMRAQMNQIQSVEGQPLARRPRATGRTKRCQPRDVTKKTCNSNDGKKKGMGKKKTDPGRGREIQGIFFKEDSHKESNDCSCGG

[2] = target: Tyrosine-protein kinase FRK (Homo sapiens) (UniProt P42685); assay: Selectivity interaction (Ambit KINOMEscan and KiNATiv profiling in Jurkat cells) EUB0000090b FRK; assay type: cell-based; settings: at 1 µM
[3] = target: Macrophage-stimulating protein receptor (Homo sapiens, UniProt Q04912); assay: Selectivity interaction (KinomeScan (DiscoverX)) EUB0000655a MST1R; settings: at 10 µM
[4] = target: T2, Serine/threonine-protein kinase Chk1 (Homo sapiens) (UniProt O14757); assay: Selectivity interaction (Upstate Kinase Profiler service (Millipore)) EUB0000056c CHEK1; settings: at 1 µM
T2 sequence (whole entry): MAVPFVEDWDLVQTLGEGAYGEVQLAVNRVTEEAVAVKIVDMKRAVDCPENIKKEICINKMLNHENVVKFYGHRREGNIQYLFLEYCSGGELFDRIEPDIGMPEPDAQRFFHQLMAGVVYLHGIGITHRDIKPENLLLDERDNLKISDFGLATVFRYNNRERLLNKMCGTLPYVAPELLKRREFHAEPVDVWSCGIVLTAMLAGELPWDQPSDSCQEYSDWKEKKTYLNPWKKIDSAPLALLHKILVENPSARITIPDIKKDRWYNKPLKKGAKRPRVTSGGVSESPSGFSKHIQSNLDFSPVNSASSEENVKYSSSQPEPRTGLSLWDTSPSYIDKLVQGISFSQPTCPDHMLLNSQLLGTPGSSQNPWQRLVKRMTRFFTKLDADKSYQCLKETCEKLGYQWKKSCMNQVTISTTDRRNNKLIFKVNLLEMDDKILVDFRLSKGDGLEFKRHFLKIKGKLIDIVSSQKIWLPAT

[5] = target: T3, Tyrosine-protein kinase ITK/TSK (Homo sapiens) (UniProt Q08881); assay: Selectivity interaction (Kinase panel (Invitrogen)) EUB0000639a ITK; settings: at 200 nM
T3 sequence (whole entry): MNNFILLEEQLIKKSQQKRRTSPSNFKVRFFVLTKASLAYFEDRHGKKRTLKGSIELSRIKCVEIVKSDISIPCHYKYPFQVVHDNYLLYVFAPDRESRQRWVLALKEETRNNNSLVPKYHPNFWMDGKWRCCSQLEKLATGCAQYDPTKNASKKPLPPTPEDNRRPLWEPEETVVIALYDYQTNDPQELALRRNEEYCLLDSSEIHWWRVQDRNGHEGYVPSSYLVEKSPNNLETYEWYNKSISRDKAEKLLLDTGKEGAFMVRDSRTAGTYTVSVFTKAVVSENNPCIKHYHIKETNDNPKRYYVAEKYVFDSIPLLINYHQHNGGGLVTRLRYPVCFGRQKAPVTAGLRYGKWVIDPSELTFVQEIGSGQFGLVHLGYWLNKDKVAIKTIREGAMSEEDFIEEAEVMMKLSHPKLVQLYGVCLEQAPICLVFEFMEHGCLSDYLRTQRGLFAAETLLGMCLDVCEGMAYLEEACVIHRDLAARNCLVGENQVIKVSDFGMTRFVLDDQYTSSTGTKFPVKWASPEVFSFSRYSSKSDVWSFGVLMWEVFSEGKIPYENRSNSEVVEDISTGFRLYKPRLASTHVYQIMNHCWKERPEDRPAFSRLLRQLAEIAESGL

[6] = target: Receptor-type tyrosine-protein kinase FLT3 (Homo sapiens) (UniProt P36888); assay: Selectivity interaction (Kinase panel (Invitrogen)) EUB0000639a FLT3; settings: at 200 nM
[7] = target: Mitogen-activated protein kinase 11 (Homo sapiens) (UniProt Q15759); assay: Selectivity interaction (Kinase screening (Upstate/Millipore)) EUB0000604a MAPK11
Mitogen-activated protein kinase 11 (Homo sapiens), sequence (Q15759 whole entry): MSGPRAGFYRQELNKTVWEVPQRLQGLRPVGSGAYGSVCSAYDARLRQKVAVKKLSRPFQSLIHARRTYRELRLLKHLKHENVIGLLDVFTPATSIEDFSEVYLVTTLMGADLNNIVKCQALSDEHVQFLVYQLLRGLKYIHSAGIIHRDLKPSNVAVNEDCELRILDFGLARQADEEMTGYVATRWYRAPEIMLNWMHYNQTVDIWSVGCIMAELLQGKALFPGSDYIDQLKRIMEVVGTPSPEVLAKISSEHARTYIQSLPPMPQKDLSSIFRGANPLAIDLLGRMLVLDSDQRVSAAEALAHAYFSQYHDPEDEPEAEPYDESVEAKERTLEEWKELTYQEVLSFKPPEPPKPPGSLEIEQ

Receptor-type tyrosine-protein kinase FLT3 (Homo sapiens), sequence (P36888 whole entry): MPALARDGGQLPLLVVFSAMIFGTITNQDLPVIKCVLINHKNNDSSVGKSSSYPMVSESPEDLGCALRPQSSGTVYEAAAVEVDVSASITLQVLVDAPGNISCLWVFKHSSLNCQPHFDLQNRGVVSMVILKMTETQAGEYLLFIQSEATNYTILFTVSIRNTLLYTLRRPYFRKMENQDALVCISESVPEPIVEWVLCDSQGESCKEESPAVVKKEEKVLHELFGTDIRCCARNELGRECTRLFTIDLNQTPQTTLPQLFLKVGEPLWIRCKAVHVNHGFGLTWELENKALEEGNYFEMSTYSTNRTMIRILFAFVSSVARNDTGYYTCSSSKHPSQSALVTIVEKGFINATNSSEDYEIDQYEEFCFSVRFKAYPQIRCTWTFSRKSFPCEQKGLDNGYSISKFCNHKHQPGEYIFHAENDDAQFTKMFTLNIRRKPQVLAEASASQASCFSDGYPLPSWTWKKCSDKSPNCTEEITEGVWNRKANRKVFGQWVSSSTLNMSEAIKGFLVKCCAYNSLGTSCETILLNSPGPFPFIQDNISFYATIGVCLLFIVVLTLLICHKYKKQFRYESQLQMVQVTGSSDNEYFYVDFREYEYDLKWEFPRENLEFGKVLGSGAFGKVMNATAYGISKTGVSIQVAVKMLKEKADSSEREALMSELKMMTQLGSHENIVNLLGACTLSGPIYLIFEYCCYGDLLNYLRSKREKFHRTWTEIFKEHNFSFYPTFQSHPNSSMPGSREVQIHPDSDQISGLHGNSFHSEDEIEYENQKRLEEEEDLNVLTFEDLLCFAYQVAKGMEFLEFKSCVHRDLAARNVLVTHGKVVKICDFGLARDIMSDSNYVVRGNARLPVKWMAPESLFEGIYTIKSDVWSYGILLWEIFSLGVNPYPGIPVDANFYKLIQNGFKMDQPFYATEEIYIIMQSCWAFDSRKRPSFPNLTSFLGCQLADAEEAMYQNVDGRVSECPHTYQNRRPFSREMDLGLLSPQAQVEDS
Macrophage-stimulating protein receptor, sequence (Q04912 25-304 limits assumed): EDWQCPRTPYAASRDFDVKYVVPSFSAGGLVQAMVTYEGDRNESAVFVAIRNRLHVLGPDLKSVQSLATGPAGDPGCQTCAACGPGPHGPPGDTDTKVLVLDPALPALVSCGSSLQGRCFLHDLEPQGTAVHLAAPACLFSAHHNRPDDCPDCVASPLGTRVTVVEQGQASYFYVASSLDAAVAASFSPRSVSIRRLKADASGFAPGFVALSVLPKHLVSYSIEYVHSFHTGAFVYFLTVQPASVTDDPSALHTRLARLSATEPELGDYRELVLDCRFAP
Macrophage-stimulating protein receptor, sequence (Q04912 310-1400 limits assumed): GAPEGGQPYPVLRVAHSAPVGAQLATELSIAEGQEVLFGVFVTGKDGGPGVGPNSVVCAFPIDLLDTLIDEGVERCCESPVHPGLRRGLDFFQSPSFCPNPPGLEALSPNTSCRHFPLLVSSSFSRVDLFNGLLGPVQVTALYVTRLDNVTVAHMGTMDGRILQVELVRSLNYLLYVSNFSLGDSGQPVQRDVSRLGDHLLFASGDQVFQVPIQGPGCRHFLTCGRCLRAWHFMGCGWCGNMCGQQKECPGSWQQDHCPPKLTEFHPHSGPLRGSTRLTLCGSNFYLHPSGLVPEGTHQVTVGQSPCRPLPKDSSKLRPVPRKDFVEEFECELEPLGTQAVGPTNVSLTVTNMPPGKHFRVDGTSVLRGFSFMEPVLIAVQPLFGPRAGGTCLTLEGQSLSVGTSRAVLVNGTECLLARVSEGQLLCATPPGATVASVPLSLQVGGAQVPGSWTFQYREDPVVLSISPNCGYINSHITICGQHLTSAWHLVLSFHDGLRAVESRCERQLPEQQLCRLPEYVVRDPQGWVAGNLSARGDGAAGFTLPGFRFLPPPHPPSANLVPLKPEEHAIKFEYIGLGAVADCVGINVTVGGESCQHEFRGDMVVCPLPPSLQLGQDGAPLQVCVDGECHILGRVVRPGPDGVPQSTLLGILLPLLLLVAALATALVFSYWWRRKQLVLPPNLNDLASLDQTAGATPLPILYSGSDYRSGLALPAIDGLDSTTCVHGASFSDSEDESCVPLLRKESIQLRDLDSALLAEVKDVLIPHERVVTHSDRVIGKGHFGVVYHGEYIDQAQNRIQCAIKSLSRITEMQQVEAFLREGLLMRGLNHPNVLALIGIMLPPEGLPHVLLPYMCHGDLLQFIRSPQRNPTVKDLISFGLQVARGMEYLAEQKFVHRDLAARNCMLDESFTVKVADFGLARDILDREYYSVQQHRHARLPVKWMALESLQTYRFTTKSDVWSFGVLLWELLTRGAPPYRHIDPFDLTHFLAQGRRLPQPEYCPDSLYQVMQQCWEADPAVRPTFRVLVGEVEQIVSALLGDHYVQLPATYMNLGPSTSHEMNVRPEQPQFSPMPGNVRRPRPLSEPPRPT
Tyrosine-protein kinase FRK (Homo sapiens), sequence (P42685 whole entry): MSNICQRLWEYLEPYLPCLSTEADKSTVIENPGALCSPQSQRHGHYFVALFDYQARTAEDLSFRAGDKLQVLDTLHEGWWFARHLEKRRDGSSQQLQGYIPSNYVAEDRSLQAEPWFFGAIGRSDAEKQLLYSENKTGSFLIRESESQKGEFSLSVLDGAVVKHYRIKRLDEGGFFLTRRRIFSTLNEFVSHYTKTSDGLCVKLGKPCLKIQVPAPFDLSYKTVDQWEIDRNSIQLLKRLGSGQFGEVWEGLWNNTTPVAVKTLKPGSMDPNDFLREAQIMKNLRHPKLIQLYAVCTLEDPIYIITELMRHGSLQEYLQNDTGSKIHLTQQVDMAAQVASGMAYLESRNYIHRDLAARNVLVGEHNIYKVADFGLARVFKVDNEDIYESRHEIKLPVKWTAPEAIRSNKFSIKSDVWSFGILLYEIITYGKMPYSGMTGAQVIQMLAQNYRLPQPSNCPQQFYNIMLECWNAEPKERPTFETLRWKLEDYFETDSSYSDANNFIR

Work on `CN(C)C/C=C/C(=O)Nc1ccc(C(=O)N2CCCC(Nc3ncc(Cl)c(-c4c[nH]c5ccccc45)n3)C2)cc1` (configuration not stated) yielded a % of control [1] of 100% and a % of control [2] of 89%.
For `CN(C)CCOc1ccc(-c2nc(-c3ccncc3)c(-c3ccc4c(c3)CC/C4=N\O)[nH]2)cc1`, the % of control [3] was 100%.
In the case of `Cc1ccc(-c2ccc3c(ccc4sc5c(c43)NC[C@@H](C)NC5=O)n2)cn1`, the % of inhibition [4] is reported as 12%.
`CC[C@@H]1[C@H](F)C(=O)N[C@@H]1COc1nccc2cc(C(N)=O)c(OC)cc12` [ZIMLOVISERTIB] showed a % of inhibition [5] of -1.94% and a % of inhibition [6] of 29.4%.
`Cc1cnc(Nc2ccc(F)cc2Cl)nc1-c1c[nH]c(C(=O)N[C@H](CO)c2cccc(Cl)c2)c1` gave a % of inhibition [7] of 25%.
